± gives the expanded uncertainty stated by the source.
Settings: Liquid, Closed cell (Static) method

Row | Compound | vapor or sublimation pressure (283.15 K) [kPa] | vapor or sublimation pressure (288.15 K) [kPa] | vapor or sublimation pressure (293.15 K) [kPa] | vapor or sublimation pressure (298.15 K) [kPa] | vapor or sublimation pressure (303.15 K) [kPa] | vapor or sublimation pressure (308.15 K) [kPa] | vapor or sublimation pressure (313.15 K) [kPa] | vapor or sublimation pressure (318.15 K) [kPa] | vapor or sublimation pressure (323.15 K) [kPa]
1 | ClC(Cl)C(Cl)Cl [1,1,2,2-tetrachloroethane] | 0.263 ± 0.02 | 0.373 ± 0.02 | 0.521 ± 0.021 | 0.711 ± 0.021 | 0.98 ± 0.022 | 1.289 ± 0.022 | 1.701 ± 0.022 | 2.236 ± 0.023 | 2.86 ± 0.023
2 | ClC(Cl)=C(Cl)Cl [tetrachloroethene] | 1.023 ± 0.022 | 1.4 ± 0.022 | 1.861 ± 0.022 | 2.462 ± 0.023 | 3.205 ± 0.023 | 4.117 ± 0.024 | 5.253 ± 0.025 | 6.621 ± 0.027 | 8.286 ± 0.028
3 | C1CCOC1 [tetrahydrofuran] | 10.73 ± 0.032 | 13.67 ± 0.036 | 17.25 ± 0.041 | 21.6 ± 0.047 | 26.81 ± 0.054 | 32.94 ± 0.065 | 40.21 ± 0.077 | 48.68 ± 0.091 | 58.54 ± 0.11

— the NIST ThermoML archive (doi:10.1016/j.jct.2005.06.003)
